Measurements as given in patent US10456407B2, “Combination therapy for treating cancer” (Epizyme, Inc., priority 2015, dated 2019).

Tested on: WSU-DLCL2 cells
Assay: RT2 Glucocorticoid signaling PCR array, WSU-DLCL2 (WSU) cell line (Table 4c)
Assay type: cell-based

## C[C@]12C=CC(=O)C=C1CC[C@@H]1[C@@H]2[C@@H](O)C[C@@]2(C)[C@H]1CC[C@]2(O)C(=O)CO [Prednisolone, prednisolone]
Gene ACTB
  Ct Values, ACTB: 14.572
  ΔCT (B2M), ACTB: −4.573
Gene ADARB1
  Ct Values, ADARB1: 26.108
  ΔCT (B2M), ADARB1: 6.963
Gene ADARB1, compared to DMSO
  ΔΔCT, ADARB1: 0.097
Gene AFF1
  Ct Values, AFF1: 27.334
  ΔCT (B2M), AFF1: 8.189
Gene AFF1, compared to DMSO
  ΔΔCT, AFF1: −0.464
Gene AK2
  Ct Values, AK2: 20.433
  ΔCT (B2M), AK2: 1.288
Gene AK2, compared to DMSO
  ΔΔCT, AK2: 0.094
Gene AMPD3
  Ct Values, AMPD3: 27.943
  ΔCT (B2M), AMPD3: 8.798
Gene AMPD3, compared to DMSO
  ΔΔCT, AMPD3: −0.219
Gene ANGPTL4
  Ct Values, ANGPTL4: 30.810
  ΔCT (B2M), ANGPTL4: 11.665
Gene ANGPTL4, compared to DMSO
  ΔΔCT, ANGPTL4: −0.329
Gene ANXA4
  Ct Values, ANXA4: 27.406
  ΔCT (B2M), ANXA4: 8.261
Gene ANXA4, compared to DMSO
  ΔΔCT, ANXA4: −0.025
Gene AQP1
  Ct Values, AQP1: 33.595
  ΔCT (B2M), AQP1: 14.450
Gene ARID68
  Ct Values, ARID68: 26.721
  ΔCT (B2M), ARID68: 7.576
Gene ARID68, compared to DMSO
  ΔΔCT, ARID68: 0.722
Gene ASPH
  Ct Values, ASPH: 21.939
  ΔCT (B2M), ASPH: 2.794
Gene ASPH, compared to DMSO
  ΔΔCT, ASPH: −0.041
Gene ATF4
  Ct Values, ATF4: 19.659
  ΔCT (B2M), ATF4: 0.514
Gene ATF4, compared to DMSO
  ΔΔCT, ATF4: 0.090
Gene B2M (normaliser)
  Ct Values, B2M: 19.145
  ΔCT (B2M), B2M: 0.000
Gene BCL6
  Ct Values, BCL6: 20.898
  ΔCT (B2M), BCL6: 1.753
Gene BCL6, compared to DMSO
  ΔΔCT, BCL6: 0.249
Gene CEBPA
  Ct Values, CEBPA: 27.838
  ΔCT (B2M), CEBPA: 8.693
Gene CEBPA, compared to DMSO
  ΔΔCT, CEBPA: −0.295
Gene CEBPB
  Ct Values, CEBPB: 25.775
  ΔCT (B2M), CEBPB: 6.630
Gene CEBPB, compared to DMSO
  ΔΔCT, CEBPB: 0.814
Gene COL4A2
  Ct Values, COL4A2: 34.328
  ΔCT (B2M), COL4A2: 15.183
Gene CREB1
  Ct Values, CREB1: 22.732
  ΔCT (B2M), CREB1: 3.587
Gene CREB1, compared to DMSO
  ΔΔCT, CREB1: −0.133
Gene CREB3
  Ct Values, CREB3: 24.551
  ΔCT (B2M), CREB3: 5.406
Gene CREB3, compared to DMSO
  ΔΔCT, CREB3: −0.453
Gene CREB3L4
  Ct Values, CREB3L4: 24.437
  ΔCT (B2M), CREB3L4: 5.292
Gene CREB3L4, compared to DMSO
  ΔΔCT, CREB3L4: −0.330
Gene CYB561
  Ct Values, CYB561: 32.971
  ΔCT (B2M), CYB561: 13.826
Gene CYB561, compared to DMSO
  ΔΔCT, CYB561: −3.598
Gene DDIT4
  Ct Values, DDIT4: 22.252
  ΔCT (B2M), DDIT4: 3.107
Gene DDIT4, compared to DMSO
  ΔΔCT, DDIT4: −1.672
Gene DUSP1
  Ct Values, DUSP1: 25.828
  ΔCT (B2M), DUSP1: 6.683
Gene DUSP1, compared to DMSO
  ΔΔCT, DUSP1: 0.454
Gene EDN1
  Ct Values, EDN1: 30.019
  ΔCT (B2M), EDN1: 11.674
Gene EHD3
  Ct Values, EHD3: 27.724
  ΔCT (B2M), EHD3: 8.579
Gene EHD3, compared to DMSO
  ΔΔCT, EHD3: −1.645
Gene FK8PS
  Ct Values, FK8PS: 21.321
  ΔCT (B2M), FK8PS: 2.176
Gene FK8PS, compared to DMSO
  ΔΔCT, FK8PS: −1.247
Gene FOSL2
  Ct Values, FOSL2: 33.647
  ΔCT (B2M), FOSL2: 14.502
Gene FOSL2, compared to DMSO
  ΔΔCT, FOSL2: 2.843
Gene GAPDH
  Ct Values, GAPDH: 16.349
  ΔCT (B2M), GAPDH: −2.796
Gene GDPD1
  Ct Values, GDPD1: 28.235
  ΔCT (B2M), GDPD1: 9.090
Gene GDPD1, compared to DMSO
  ΔΔCT, GDPD1: 0.169
Gene GHRHR
  Ct Values, GHRHR: 37.739
  ΔCT (B2M), GHRHR: 18.644
Gene GHRHR, compared to DMSO
  ΔΔCT, GHRHR: 3.458
Gene GLUL
  Ct Values, GLUL: 31.475
  ΔCT (B2M), GLUL: 12.330
Gene GOT1
  Ct Values, GOT1: 22.841
  ΔCT (B2M), GOT1: 3.696
Gene GOT1, compared to DMSO
  ΔΔCT, GOT1: 0.262
Gene H6PD
  Ct Values, H6PD: 26.197
  ΔCT (B2M), H6PD: 7.052
Gene H6PD, compared to DMSO
  ΔΔCT, H6PD: 0.142
Gene HNRPLL
  Ct Values, HNRPLL: 24.750
  ΔCT (B2M), HNRPLL: 5.605
Gene HNRPLL, compared to DMSO
  ΔΔCT, HNRPLL: 1.026
Gene HPRT1
  Ct Values, HPRT1: 21.361
  ΔCT (B2M), HPRT1: 2.216
Gene IL1RN
  Ct Values, IL1RN: 33.599
  ΔCT (B2M), IL1RN: 14.454
Gene IL1RN, compared to DMSO
  ΔΔCT, IL1RN: 1.298
Gene IL10
  Ct Values, IL10: 34.306
  ΔCT (B2M), IL10: 15.161
Gene KLF9
  Ct Values, KLF9: 30.105
  ΔCT (B2M), KLF9: 10.960
Gene KLF9, compared to DMSO
  ΔΔCT, KLF9: −0.431
Gene KLF13
  Ct Values, KLF13: 23.792
  ΔCT (B2M), KLF13: 4.647
Gene KLF13, compared to DMSO
  ΔΔCT, KLF13: −0.442
Gene LOX
  Ct Values, LOX: 34.511
  ΔCT (B2M), LOX: 15.366
Gene LOX, compared to DMSO
  ΔΔCT, LOX: 0.550
Gene MERTK
  Ct Values, MERTK: 32.524
